Reference: US9458220B2 (priority 2010, dated 2016)

Legend:
[1] = Dipeptide half life on IGF1 dipeptide extended (p-NH2-F)A19 analogs in PBS; type: physicochemical; conditions: Table 12; cleavage of (pNH2-Phe) amide linked dipeptide AibPro from the parent peptide
Description: Accordingly, the IGF1A chain alone was determined to be a good model for the study of pro-drug half life on IGF1 B:A (Y^B16L^B17) analog peptides. […] For simplicity, prodrug half lives were determined using only the IGF1 A chain in the absence of the B chain. The half lives of each propeptide was determined as described in Example 5.
The IGF^B16B17 analog peptide prodrugs were incubated in PBS, pH 7.4 at 37° C. and at predetermined time intervals an aliquot was taken and further degradation was quenched with 0.1% TFA and the aliquot was subjected to analytical HPLC analysis. Peaks a and b, representing the prodrug and active forms of the IGF^B16B17 analog peptide were identified with LC-MS and quantified by integration of peak area an HPLC. FIGS. 9A-9C show the output of an HPLC analysis of the degradation of the IGF^B16B17 analog peptide prodrug: IGF1A(Ala)^6,7,11,20(Aib-Pro-pNH—F)^19. Aliquots were taken at 20 minutes (FIG. 9A), 81 minutes (FIG. 9B) and 120 minutes (FIG. 9C) after beginning the incubation of the prodrug in PBS.

human insulin receptor = target: T1, human insulin receptor (Homo sapiens, UniProt P06213); assay: Insulin receptor competition binding assay (scintillation proximity); conditions: Table 9
T1 construct: expressed in transfected cells; plasma membrane fragments

human IGF-1 receptor = target: T2, human IGF-1 receptor (Homo sapiens, UniProt P08069); assay: IGF-1 receptor competition binding assay (scintillation proximity); conditions: Table 9
T2 construct: expressed in transfected cells; plasma membrane fragments
T2 sequence (P08069 31-736 limits assumed): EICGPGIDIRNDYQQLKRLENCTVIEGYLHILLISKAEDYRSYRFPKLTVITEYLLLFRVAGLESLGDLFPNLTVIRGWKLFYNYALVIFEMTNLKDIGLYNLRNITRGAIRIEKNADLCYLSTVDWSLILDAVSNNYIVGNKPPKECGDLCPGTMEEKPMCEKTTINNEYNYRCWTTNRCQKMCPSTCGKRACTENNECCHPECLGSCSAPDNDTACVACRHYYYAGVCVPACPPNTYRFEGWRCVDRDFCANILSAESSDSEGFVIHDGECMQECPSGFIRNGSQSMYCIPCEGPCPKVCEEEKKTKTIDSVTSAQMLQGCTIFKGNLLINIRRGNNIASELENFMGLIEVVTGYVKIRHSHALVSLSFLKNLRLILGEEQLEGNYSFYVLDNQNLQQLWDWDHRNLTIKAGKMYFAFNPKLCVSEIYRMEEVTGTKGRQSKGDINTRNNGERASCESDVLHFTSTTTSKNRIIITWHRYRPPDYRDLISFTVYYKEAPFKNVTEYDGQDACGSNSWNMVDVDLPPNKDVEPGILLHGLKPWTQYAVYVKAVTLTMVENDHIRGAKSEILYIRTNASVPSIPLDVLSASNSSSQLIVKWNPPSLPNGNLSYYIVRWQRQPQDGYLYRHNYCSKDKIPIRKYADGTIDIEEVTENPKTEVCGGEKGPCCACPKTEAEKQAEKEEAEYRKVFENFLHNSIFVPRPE
T2 sequence (P08069 741-1367 partner limits assumed): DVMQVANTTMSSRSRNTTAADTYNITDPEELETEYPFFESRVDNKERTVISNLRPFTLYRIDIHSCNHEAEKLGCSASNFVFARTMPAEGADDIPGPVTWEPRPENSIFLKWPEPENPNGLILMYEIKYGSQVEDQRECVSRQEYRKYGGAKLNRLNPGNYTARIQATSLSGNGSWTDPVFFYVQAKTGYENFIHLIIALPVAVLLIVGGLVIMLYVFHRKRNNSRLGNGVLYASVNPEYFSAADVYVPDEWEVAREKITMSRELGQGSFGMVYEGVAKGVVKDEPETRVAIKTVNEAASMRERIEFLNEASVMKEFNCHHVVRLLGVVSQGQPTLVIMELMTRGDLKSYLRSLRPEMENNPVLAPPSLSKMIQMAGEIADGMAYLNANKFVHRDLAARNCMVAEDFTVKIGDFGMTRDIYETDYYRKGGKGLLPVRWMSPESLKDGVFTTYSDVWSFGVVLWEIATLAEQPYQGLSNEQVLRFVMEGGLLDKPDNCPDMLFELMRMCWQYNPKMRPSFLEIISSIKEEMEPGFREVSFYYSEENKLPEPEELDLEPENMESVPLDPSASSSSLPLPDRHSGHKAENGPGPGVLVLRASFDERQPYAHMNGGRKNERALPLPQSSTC

T1 sequence (P06213 28-758 limits assumed): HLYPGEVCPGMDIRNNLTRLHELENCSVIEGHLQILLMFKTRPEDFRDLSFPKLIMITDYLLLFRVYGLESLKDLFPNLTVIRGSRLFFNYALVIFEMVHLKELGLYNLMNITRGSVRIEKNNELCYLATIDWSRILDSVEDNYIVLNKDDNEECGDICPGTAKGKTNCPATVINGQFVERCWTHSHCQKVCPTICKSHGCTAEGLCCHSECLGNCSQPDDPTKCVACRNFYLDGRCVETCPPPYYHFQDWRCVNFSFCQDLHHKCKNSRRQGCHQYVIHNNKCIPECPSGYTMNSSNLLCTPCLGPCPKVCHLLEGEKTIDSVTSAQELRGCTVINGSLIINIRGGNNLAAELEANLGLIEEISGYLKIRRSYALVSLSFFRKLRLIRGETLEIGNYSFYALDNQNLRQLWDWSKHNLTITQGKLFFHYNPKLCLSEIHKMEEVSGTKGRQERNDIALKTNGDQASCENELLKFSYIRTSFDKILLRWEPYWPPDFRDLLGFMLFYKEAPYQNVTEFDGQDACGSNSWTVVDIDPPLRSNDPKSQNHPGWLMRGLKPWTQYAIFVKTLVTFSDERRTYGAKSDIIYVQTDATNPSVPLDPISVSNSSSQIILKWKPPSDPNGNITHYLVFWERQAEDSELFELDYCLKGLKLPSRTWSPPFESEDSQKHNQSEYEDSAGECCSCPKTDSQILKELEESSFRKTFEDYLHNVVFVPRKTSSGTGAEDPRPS
T1 sequence (P06213 763-1382 partner limits assumed): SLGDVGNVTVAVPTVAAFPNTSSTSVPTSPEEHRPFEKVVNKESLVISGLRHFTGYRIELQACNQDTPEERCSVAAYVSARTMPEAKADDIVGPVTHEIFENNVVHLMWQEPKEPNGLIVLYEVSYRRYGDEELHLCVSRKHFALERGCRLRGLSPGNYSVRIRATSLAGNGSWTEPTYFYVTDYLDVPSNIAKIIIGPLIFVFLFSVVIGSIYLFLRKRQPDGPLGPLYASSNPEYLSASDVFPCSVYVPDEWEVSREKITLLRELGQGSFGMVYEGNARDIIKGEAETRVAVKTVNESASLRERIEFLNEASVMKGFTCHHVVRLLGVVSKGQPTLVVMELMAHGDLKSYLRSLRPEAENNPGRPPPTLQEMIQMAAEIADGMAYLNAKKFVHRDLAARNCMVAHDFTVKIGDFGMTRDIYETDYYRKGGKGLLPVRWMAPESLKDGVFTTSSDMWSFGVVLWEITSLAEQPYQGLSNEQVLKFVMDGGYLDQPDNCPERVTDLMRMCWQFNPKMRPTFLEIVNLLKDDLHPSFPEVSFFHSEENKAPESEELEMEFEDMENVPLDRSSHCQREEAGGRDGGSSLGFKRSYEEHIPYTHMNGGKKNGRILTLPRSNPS

Row | Compound | Half Life [1] | Insulin Receptor % insulin (in test) (human insulin receptor) | Insulin Receptor % native insulin activity (0.6 nM) (human insulin receptor) | IGF-1 Receptor % IGF-1 (in test) (human IGF-1 receptor) | Ratio (human insulin receptor; IGF-1 receptor IC50 over insulin receptor IC50)
1 | CC[C@H](C)[C@H](NC(=O)CN)C(=O)N[C@H](C(=O)N[C@@H](CC(=O)O)C(=O)N[C@@H](CCC(=O)O)C(=O)N[C@@H](CSCNC(C)=O)C(=O)N[C@@H](CSSC[C@H](NC(=O)[C@H](CC(C)C)NC(=O)[C@@H](NC(=O)[C@H](CCC(=O)O)NC(=O)[C@@H]1CCCN1C(=O)CN)[C@@H](C)O)C(=O)NCC(=O)N[C@@H](C)C(=O)N[C@@H](CCC(=O)O)C(=O)N[C@@H](CC(C)C)C(=O)N[C@H](C(=O)N[C@@H](CC(=O)O)C(=O)N[C@@H](C)C(=O)N[C@@H](CC(C)C)C(=O)N[C@@H](Cc1ccc(O)cc1)C(=O)N[C@@H](CC(C)C)C(=O)N[C@H](C(=O)N[C@@H](CSCNC(C)=O)C(=O)NCC(=O)N[C@@H](CC(=O)O)C(=O)N[C@@H](CCCNC(=N)N)C(=O)NCC(=O)N[C@@H](Cc1ccccc1)C(=O)N[C@@H](Cc1ccc(O)cc1)C(=O)N[C@@H](Cc1ccccc1)C(=O)N[C@@H](CC(N)=O)C(=O)N[C@@H](CCCCN)C(=O)N1CCC[C@H]1C(=O)N[C@H](C(N)=O)[C@@H](C)O)C(C)C)C(C)C)C(=O)N[C@@H](Cc1ccccc1)C(=O)N[C@@H](CCCNC(=N)N)C(=O)N[C@@H](CO)C(=O)N[C@@H](CSCNC(C)=O)C(=O)N[C@@H](CC(=O)O)C(=O)N[C@@H](CC(C)C)C(=O)N[C@@H](CCCNC(=N)N)C(=O)N[C@@H](CCCNC(=N)N)C(=O)N[C@@H](CC(C)C)C(=O)N[C@@H](CCC(=O)O)C(=O)N[C@@H](CCSC)C(=O)N[C@@H](Cc1ccc(NC(=O)[C@@H]2CCCN2C(=O)C(C)(C)N)cc1)C(=O)N[C@@H](CSCNC(C)=O)C(=O)N[C@@H](C)C(=O)O)C(C)C | 1.8 h |  |  |  | 
2 | CC[C@H](C)[C@H](NC(=O)CN)C(=O)N[C@H](C(=O)N[C@@H](CC(=O)O)C(=O)N[C@@H](CCC(=O)O)C(=O)N[C@H]1CSSC[C@@H]2NC(=O)[C@H](CO)NC(=O)[C@H](CCCNC(=N)N)NC(=O)[C@H](Cc3ccccc3)NC(=O)[C@H](CSSC[C@H](NC(=O)[C@H](CC(C)C)NC(=O)[C@H](Cc3c[nH]cn3)NC(=O)[C@H](CCC(N)=O)NC(=O)[C@H](CC(N)=O)NC(=O)[C@@H](NC(=O)[C@@H](N)Cc3ccccc3)C(C)C)C(=O)NCC(=O)N[C@@H](C)C(=O)N[C@@H](CCC(=O)O)C(=O)N[C@@H](CC(C)C)C(=O)N[C@@H](C(C)C)C(=O)N[C@@H](CC(=O)O)C(=O)N[C@@H](C)C(=O)N[C@@H](CC(C)C)C(=O)N[C@@H](Cc3ccc(O)cc3)C(=O)N[C@@H](CC(C)C)C(=O)N[C@@H](C(C)C)C(=O)N[C@H](C(=O)NCC(=O)N[C@@H](CC(=O)O)C(=O)N[C@@H](CCCNC(=N)N)C(=O)NCC(=O)N[C@@H](Cc3ccccc3)C(=O)N[C@@H](Cc3ccc(O)cc3)C(=O)N[C@@H](Cc3ccccc3)C(=O)N[C@@H](CC(N)=O)C(=O)N[C@@H](CCCCN)C(=O)N3CCC[C@H]3C(=O)N[C@H](C(N)=O)[C@@H](C)O)CSSC[C@@H](C(=O)N[C@@H](C)C(N)=O)NC(=O)[C@H](Cc3ccc(O)cc3)NC(=O)[C@H](CCSC)NC(=O)[C@H](CCC(=O)O)NC(=O)[C@H](CC(C)C)NC(=O)[C@H](CCCNC(=N)N)NC(=O)[C@H](CCCNC(=N)N)NC(=O)[C@H](CC(C)C)NC(=O)[C@H](CC(=O)O)NC2=O)NC1=O)C(C)C [IGF-1 A: In B (1-5)-IGF-1 B (YL) (6-30)] |  | 62.4% | 193.5% | 3.6% | 
3 | CC[C@H](C)[C@H](NC(=O)CN)C(=O)N[C@H](C(=O)N[C@@H](CC(=O)O)C(=O)N[C@@H](CCC(=O)O)C(=O)N[C@H]1CSSC[C@@H]2NC(=O)[C@H](CO)NC(=O)[C@H](CCCNC(=N)N)NC(=O)[C@H](Cc3ccccc3)NC(=O)[C@H](CSSC[C@H](NC(=O)[C@H](CC(C)C)NC(=O)[C@@H](NC(=O)[C@H](CCC(=O)O)NC(=O)[C@@H]3CCCN3C(=O)CN)[C@@H](C)O)C(=O)NCC(=O)N[C@@H](CO)C(=O)N[C@@H](Cc3c[nH]cn3)C(=O)N[C@@H](CC(C)C)C(=O)N[C@@H](C(C)C)C(=O)N[C@@H](CCC(=O)O)C(=O)N[C@@H](C)C(=O)N[C@@H](CC(C)C)C(=O)N[C@@H](Cc3ccc(O)cc3)C(=O)N[C@@H](CC(C)C)C(=O)N[C@@H](C(C)C)C(=O)N[C@H](C(=O)NCC(=O)N[C@@H](CC(=O)O)C(=O)N[C@@H](CCCNC(=N)N)C(=O)NCC(=O)N[C@@H](Cc3ccccc3)C(=O)N[C@@H](Cc3ccc(O)cc3)C(=O)N[C@@H](Cc3ccccc3)C(=O)N[C@@H](CC(N)=O)C(=O)N[C@@H](CCCCN)C(=O)N3CCC[C@H]3C(=O)N[C@H](C(N)=O)[C@@H](C)O)CSSC[C@@H](C(=O)N[C@@H](C)C(N)=O)NC(=O)[C@H](Cc3ccc(O)cc3)NC(=O)[C@H](CCSC)NC(=O)[C@H](CCC(=O)O)NC(=O)[C@H](CC(C)C)NC(=O)[C@H](CCCNC(=N)N)NC(=O)[C@H](CCCNC(=N)N)NC(=O)[C@H](CC(C)C)NC(=O)[C@H](CC(=O)O)NC2=O)NC1=O)C(C)C |  | 19.1% | 37.7% | 0.3% | 22.6
4 | CC[C@H](C)[C@H](NC(=O)CN)C(=O)N[C@H](C(=O)N[C@@H](CC(=O)O)C(=O)N[C@@H](CCC(=O)O)C(=O)N[C@H]1CSSC[C@@H]2NC(=O)[C@H](CO)NC(=O)[C@H](CCCNC(=N)N)NC(=O)[C@H](Cc3ccccc3)NC(=O)[C@H](CSSC[C@H](NC(=O)[C@H](CC(C)C)NC(=O)[C@@H](NC(=O)[C@H](CCC(=O)O)NC(=O)[C@@H]3CCCN3C(=O)CN)[C@@H](C)O)C(=O)NCC(=O)N[C@@H](C)C(=O)N[C@@H](CCC(=O)O)C(=O)N[C@@H](CC(C)C)C(=O)N[C@@H](C(C)C)C(=O)N[C@@H](CC(=O)O)C(=O)N[C@@H](C)C(=O)N[C@@H](CC(C)C)C(=O)N[C@@H](Cc3ccc(O)cc3)C(=O)N[C@@H](CC(C)C)C(=O)N[C@@H](C(C)C)C(=O)N[C@H](C(=O)NCC(=O)N[C@@H](CC(=O)O)C(=O)N[C@@H](CCCNC(=N)N)C(=O)NCC(=O)N[C@@H](Cc3ccccc3)C(=O)N[C@@H](Cc3ccc(O)cc3)C(=O)N[C@@H](Cc3ccccc3)C(=O)N[C@@H](CC(N)=O)C(=O)N[C@@H](CCCCN)C(=O)N3CCC[C@H]3C(=O)N[C@H](C(N)=O)[C@@H](C)O)CSSC[C@@H](C(=O)N[C@@H](C)C(=O)O)NC(=O)[C@H](Cc3ccc(NC(=O)[C@@H]4CCCN4C(=O)C(C)(C)N)cc3)NC(=O)[C@H](CCSC)NC(=O)[C@H](CCC(=O)O)NC(=O)[C@H](CC(C)C)NC(=O)[C@H](CCCNC(=N)N)NC(=O)[C@H](CCCNC(=N)N)NC(=O)[C@H](CC(C)C)NC(=O)[C@H](CC(=O)O)NC2=O)NC1=O)C(C)C [IGF1 B:A(pNH2-Phe)^A19] | 1.6 h |  |  |  | 
